Source: US4877774A, “Administration of steroid hormones” (The United States of America as represented by the …, priority 1987, dated 1989)
In brackets after ≈: the same amount, converted by molar mass. Several values for one entry are separate records, joined by “and”; a condition that tells them apart may be missing. Equal entries are not always repeated.

Tests used:
[1] = human trial; cited from earlier work
physchem [2] = assay: physchem
Method: The appropriate proportions in the mixture can be determined by examining the descending curvature of the Bs-type phase solubility of FIG. 1.
The appropriate mixture was determined by examining the descending curvature of the Bs-type phase solubility diagram, as shown in FIG. 1. […] The complex, which precipitated as a microcrystalline powder, was removed by filtration and dried under vacuum at room temperature for 24 hours.

amylases of human saliva = settings: cited from earlier work
physchem [3] = settings: water
Method: The dissolution rates of testosterone alone or its release from complexes of interest were measured and compared with published data.

For OC[C@H]1O[C@@H]2O[C@H]3[C@H](O)[C@@H](O)[C@@H](O[C@H]4[C@H](O)[C@@H](O)[C@@H](O[C@H]5[C@H](O)[C@@H](O)[C@@H](O[C@H]6[C@H](O)[C@@H](O)[C@@H](O[C@H]7[C@H](O)[C@@H](O)[C@@H](O[C@H]8[C@H](O)[C@@H](O)[C@@H](O[C@H]1[C@H](O)[C@H]2O)O[C@@H]8CO)O[C@@H]7CO)O[C@@H]6CO)O[C@@H]5CO)O[C@@H]4CO)O[C@@H]3CO [beta-cyclodextrin], the “administration of testosterone, estradiol, or progesterone” value [1] is listed as “marginal”.
In the case of OC[C@H]1O[C@@H]2O[C@H]3[C@H](O)[C@@H](O)[C@@H](O[C@H]4[C@H](O)[C@@H](O)[C@@H](O[C@H]5[C@H](O)[C@@H](O)[C@@H](O[C@H]6[C@H](O)[C@@H](O)[C@@H](O[C@H]7[C@H](O)[C@@H](O)[C@@H](O[C@H]8[C@H](O)[C@@H](O)[C@@H](O[C@H]9[C@H](O)[C@@H](O)[C@@H](O[C@H]1[C@H](O)[C@H]2O)O[C@@H]9CO)O[C@@H]8CO)O[C@@H]7CO)O[C@@H]6CO)O[C@@H]5CO)O[C@@H]4CO)O[C@@H]3CO [gamma-cyclodextrin], the solubility (physchem [2]; water) is listed as 168 mM (≈ 218 mg/mL) and the “susceptibility to the amylases of human saliva” value (amylases of human saliva) is listed as “susceptible”.
With C[C@]12CC[C@H]3[C@@H](CCC4=CC(=O)CC[C@@]43C)[C@@H]1CC[C@@H]2O [testosterone] the solubility (physchem [2]; concentration of testosterone in water (without cyclodextrin), 25° C.) was 130 µM and 37 µg/mL, the solubility (physchem [2]; gamma-cyclodextrin, limit value of testosterone concentration, with gamma-cyclodextrin, 25° C.) was 1210 µM and 350 µg/mL and the solubility (physchem [2]; gamma-cyclodextrin, maximal solubilization of testosterone, with gamma-cyclodextrin, 25° C.) was 8700 µM and 2500 µg/mL. The solubility (physchem [3]) was 37 µg/mL (≈ 128 µM).
